Assay results published in patent publication US20150344485A1, “BICYCLIC PYRIMIDONE COMPOUNDS AS INHIBITORS OF LP-PLA2” (GLAXOSMITHKLINE INTELLECTUAL PROPERTY DEVELOPMENT LIMITED, priority 2013, published 2015).
Like-named read-outs stand apart in the source and are kept apart here.

How the values were obtained:
Lp-PLA2 in human plasma = molecular target: T1, Lp-PLA2 in human plasma (Homo sapiens, UniProt Q13093); test: Lp-PLA2 human plasma assay (Thio-PAF assay); type: biochemical; conditions: pooled human plasma; read-out: pIC50 values in the thio-PAF assay (converted)
T1 construct: from tissue; host or cells: pooled human plasma
T1 sequence (Q13093 22-441): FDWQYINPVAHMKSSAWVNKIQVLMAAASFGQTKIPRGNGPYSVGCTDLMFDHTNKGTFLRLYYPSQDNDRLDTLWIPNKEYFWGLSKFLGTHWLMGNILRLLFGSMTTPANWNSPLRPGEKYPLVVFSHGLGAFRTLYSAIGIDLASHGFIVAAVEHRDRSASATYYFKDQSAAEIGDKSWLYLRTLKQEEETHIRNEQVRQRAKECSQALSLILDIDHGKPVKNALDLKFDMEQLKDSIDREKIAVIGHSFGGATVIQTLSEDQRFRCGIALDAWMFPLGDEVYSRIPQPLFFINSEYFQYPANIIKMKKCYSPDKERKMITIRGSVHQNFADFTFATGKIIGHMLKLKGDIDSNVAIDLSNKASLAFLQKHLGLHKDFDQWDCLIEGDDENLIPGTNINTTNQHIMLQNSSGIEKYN
Excerpt: The human plasma assay utilizes a thioester analog of PAF (phosphatidylcholine), where hydrolysis yields to the formation of a phospholipid containing a free thiol group. The amount of thiol is quantitated continuously by reacting with CPM (7-diethylamino-3-(4′-maleimidylphenyl)-4-methylcoumarin), a maleimide which increases in fluoresence after Michael addition of thiols. This assay may detect the activity of Lp-PLA2 in human plasma, as determined by specific inhibition by Lp-PLA2 inhibitors.
The thio-PAF assay was run as a quenched 15 μL assay. Compounds source plate was prepared by making 1:3 (by volume) serial dilution of the compounds into pure DMSO on 384-well microplate. 0.01 μL of compounds on compound source plate were transferred to 384 well Greiner 784076 (black) low-volume plates by ECHO liquid dispenser. 8 μL pooled human plasma, which was previously aliquoted and frozen, was added. Plates were centrifuged for 10 sec at 500 rpm. After 30 minutes preincubation, 2 μL of substrate solution comprising 2.5 mM 2-thio-PAF [from ethanol stock], 32 μM CPM [from a DMSO stock] and 3.2 mM NEM (N-ethylmaleimide) [made fresh daily in DMSO] in assay buffer of 50 mM HEPES, pH 7.4, 150 mM NaCl, 1 mM CHAPS was added to 384 well Greiner 784076 (black) low-volume plates by BRAVO liquid handling station. After 2 mins, reaction was quenched with 5 μL of 5% aqueous trifluoroacetic acid (TFA). Plates were covered to protect from light and incubated for 40 min at room temperature. Plates were read at ex: 380/em: 485 using-Envision microplate reader. pIC50 data, curve and QC analysis was conducted by using XLFit module in Excel.

[1] = molecular target: T2, recombinant human Lp-PLA2 (Homo sapiens, UniProt Q13093); test: Recombinant human Lp-PLA2 assay (rhLp-PLA2, PED6 assay); type: biochemical
T2 sequence (Q13093 22-441): T1 sequence (Q13093 22-441)
Excerpt: (1) Recombinant Human Lp-PLA2 Assay (rhLp-PLA2) (Also Referred to as “PED6” Assay)
N-((6-(2,4-dinitrophenyl)amino)-hexanoyl)-2-(4,4-difluoro-5,7-dimethyl-4-bora-3a,4a-diaza-s-indacene-3-pentanoyl)-1-hexadecanoyl-sn-glycero-3-phosphoethanolamine, triethylammonium salt (PED6) is a commercially available fluorescently-labeled phospholipid, which is commercially available from Invitrogene and Molecular Probes. There is a quenching para-nitro phenyl (PNP) group in the sn3 position and a Bodipy fluorescein (FL) group in the sn2 position. Upon cleavage with Lp-PLA2, the Bodipy FL group is liberated and then may result in an increase in fluorescence. Inhibitors of Lp-PLA2 therefore prevent this cleavage and no fluorescent increase is observed.
The PED6 assay was run as an unquenched 10 μL assay. The source plate containing the compounds to be tested was prepared by making 1:3 (by volume) serial dilution of the compounds within DMSO on 384-well microplate. Then, 0.01 μL of the compounds on compound source plate were transferred into 384 well Greiner 784076 (black) plates using ECHO liquid dispenser. 5 μL of recombinant human Lp-PLA2 enzyme (4 nM (or 110 pM) rhLp-PLA2 in assay buffer of 50 mM HEPES, pH 7.4, 150 mM NaCl, 1 mM CHAPS) was added to each well of the plate. Plates were centrifuged for 10 sec at 500 rpm. After 30 minutes preincubation, 5 μL of substrate (4 μM (or 5 μM) PED6 [from 5 mM DMSO stock] in assay buffer of 50 mM HEPES, pH 7.4, 150 mM NaCl, 1 mM CHAPS) was added to 384 well Greiner 784076 (black) plates. Plates were centrifuged for 10 sec at 500 rpm. The plate was covered to protect it from light and incubated for 20 min at room temperature. The plates were read for fluorescence intensity at ex: 480/em: 540 using ViewLux microplate imager for Envision spectrofluroimeters. pIC50 data, curve and QC analysis was conducted by using XL fit module in Excel.

[2] = read-out: pIC50 values in the recombinant human Lp-PLA2 assay (converted)
[3] = read-out: rhLp-PLA2 (PED6 assay) (pIC50) (converted)

| Compound | IC50 (Lp-PLA2 in human plasma) [nM] | IC50 [1, 2] [nM] | IC50 [1, 3] [nM] |
| --- | --- | --- | --- |
| C[C@H]1CCn2c(cc(OCc3ccc(Oc4ccnc(C(F)(F)F)c4)c(F)c3)nc2=O)N1C [E151, (S)-8-((3-fluoro-4-((2-(trifluoromethyl)pyridin-4-yl)oxy)benzyl)oxy)-1,2-dimethyl-3,4-dihydro-1H-pyrimido[1,6-a]pyrimidin-6(2H)-one] | ≤ 10 | ≤ 1 |  |
| C[C@@H]1CCn2c(cc(OCc3ccc(Oc4cccc(C(F)(F)F)c4)c(F)c3)nc2=O)N1C [E120, (R)-8-((3-fluoro-4-(3-(trifluoromethyl)phenoxy)benzyl)oxy)-1,2-dimethyl-3,4-dihydro-1H-pyrimido[1,6-a]pyrimidin-6(2H)-one] | ≤ 100 | ≤ 1 |  |
| C[C@H]1CCn2c(cc(OCc3ccc(Oc4cc(F)cc(F)c4)cc3)nc2=O)N1C [E141, (S)-8-((4-(3,5-difluorophenoxy)benzyl)oxy)-1,2-dimethyl-3,4-dihydro-1H-pyrimido[1,6-a]pyrimidin-6(2H)-one] |  | ≤ 1 |  |
| C[C@@H]1CCn2c(cc(OCc3cc(F)c(Oc4ccc(F)cc4)c(F)c3)nc2=O)N1C [E122, (R)-8-((3,5-difluoro-4-(4-fluorophenoxy)benzyl)oxy)-1,2-dimethyl-3,4-dihydro-1H-pyrimido[1,6-a]pyrimidin-6(2H)-one] | ≤ 100 | ≤ 1 |  |
| C[C@@H]1CCn2c(cc(OCc3cc(F)c(Oc4ccc(F)c(F)c4)c(F)c3)nc2=O)N1C [E101, (R)-8-((4-(3,4-difluorophenoxy)-3,5-difluorobenzyl)oxy)-1,2-dimethyl-3,4-dihydro-1H-pyrimido[1,6-a]pyrimidin-6(2H)-one] | ≤ 10 | ≤ 1 |  |
| C[C@@H]1CCn2c(cc(OCc3cc(F)c(Oc4cccc(F)c4)c(F)c3)nc2=O)N1C [E103, (R)-8-((3,5-difluoro-4-(3-fluorophenoxy)benzyl)oxy)-1,2-dimethyl-3,4-dihydro-1H-pyrimido[1,6-a]pyrimidin-6(2H)-one] | ≤ 100 | ≤ 1 |  |
| C[C@H]1CCn2c(cc(OCc3ccc(Oc4cnc(C(F)(F)F)nc4)c(F)c3)nc2=O)N1C [E107, (S)-8-((3-fluoro-4-((2-(trifluoromethyl)pyrimidin-5-yl)oxy)benzyl)oxy)-1,2-dimethyl-3,4-dihydro-1H-pyrimido[1,6-a]pyrimidin-6(2H)-one] | ≤ 100 | ≤ 1 | 0.398 |
| C[C@@H]1CCn2c(cc(OCc3ccc(Oc4cnc(C(F)(F)F)nc4)c(F)c3)nc2=O)N1C [E110, (R)-8-((3-fluoro-4-((2-(trifluoromethyl)pyrimidin-5-yl)oxy)benzyl)oxy)-1,2-dimethyl-3,4-dihydro-1H-pyrimido[1,6-a]pyrimidin-6(2H)-one] | ≤ 100 | ≤ 1 | 0.631 |
| CCN1c2cc(OCc3cc(F)c(F)c(F)c3)nc(=O)n2CC[C@@H]1C [E56, (S)-1-ethyl-2-methyl-8-((3,4,5-trifluorobenzyl)oxy)-3,4-dihydro-1H-pyrimido[1,6-a]pyrimidin-6(2H)-one] | ≤ 10 | ≤ 1 | 0.398 |
| C[C@H]1CCn2c(cc(OCc3cc(F)c(Oc4ccc(F)c(Cl)c4)c(F)c3)nc2=O)N1C [E106, (S)-8-((4-(3-chloro-4-fluorophenoxy)-3,5-difluorobenzyl)oxy)-1,2-dimethyl-3,4-dihydro-1H-pyrimido[1,6-a]pyrimidin-6(2H)-one] | ≤ 100 | ≤ 1 |  |
| CC(C)N1c2cc(OCc3ccc(F)c(F)c3)nc(=O)n2CC[C@H]1C [E69, (R)-8-((3,4-difluorobenzyl)oxy)-1-isopropyl-2-methyl-3,4-dihydro-1H-pyrimido[1,6-a]pyrimidin-6(2H)-one] |  | ≤ 1 |  |
| C[C@@H]1CCn2c(cc(OCc3ccc(OC4CCCC4)c(F)c3)nc2=O)N1C [E48, (R)-8-((4-(cyclopentyloxy)-3-fluorobenzyl)oxy)-1,2-dimethyl-3,4-dihydro-1H-pyrimido[1,6-a]pyrimidin-6(2H)-one] |  |  | 7.94 |
| CC1CCn2c(cc(OCc3cc(F)c(Oc4cccc(F)c4)c(F)c3)nc2=O)N1 (stereo not drawn) [E5, 8-((3,5-difluoro-4-(3-fluorophenoxy)benzyl)oxy)-2-methyl-3,4-dihydro-1H-pyrimido[1,6-a]pyrimidin-6(2H)-one] |  | ≤ 1 | 0.398 |
| C[C@@H]1CCn2c(cc(OCc3ccc(OC4CCCCC4)c(F)c3)nc2=O)N1C [E67, (R)-8-((4-(cyclohexyloxy)-3-fluorobenzyl)oxy)-1,2-dimethyl-3,4-dihydro-1H-pyrimido[1,6-a]pyrimidin-6(2H)-one] |  |  | 5.01 |
| [2H]C([2H])(Oc1cc2n(c(=O)n1)CC[C@@H](C)N2C)c1cc(F)c(F)cc1F [E23, (R)-8-(dideutero(2,4,5-trifluorophenyl)methoxy)-1,2-dimethyl-3,4-dihydro-1H-pyrimido[1,6-a]pyrimidin-6(2H)-one] |  |  | 12.6 |
| C[C@H]1CCn2c(cc(OCc3cc(F)c(OC4CCCCC4)c(F)c3)nc2=O)N1C [E81, (S)-8-((4-(cyclohexyloxy)-3,5-difluorobenzyl)oxy)-1,2-dimethyl-3,4-dihydro-1H-pyrimido[1,6-a]pyrimidin-6(2H)-one] |  | ≤ 1 |  |
| CC(C)Oc1c(F)cc(COc2cc3n(c(=O)n2)CC[C@H](C)N3C)cc1F [E100, (S)-8-((3,5-difluoro-4-isopropoxybenzyl)oxy)-1,2-dimethyl-3,4-dihydro-1H-pyrimido[1,6-a]pyrimidin-6(2H)-one] |  | ≤ 1 |  |
| CC(C)Oc1c(F)cc(COc2cc3n(c(=O)n2)CC[C@@H](C)N3C)cc1F [E82, (R)-8-((3,5-difluoro-4-isopropoxybenzyl)oxy)-1,2-dimethyl-3,4-dihydro-1H-pyrimido[1,6-a]pyrimidin-6(2H)-one] |  | ≤ 1 | 0.126 |
| C[C@@H]1CCn2c(cc(OCc3cc(F)c(OC4CCCCC4)c(F)c3)nc2=O)N1C [E83, (R)-8-((4-(cyclohexyloxy)-3,5-difluorobenzyl)oxy)-1,2-dimethyl-3,4-dihydro-1H-pyrimido[1,6-a]pyrimidin-6(2H)-one] |  | ≤ 1 |  |
| CC(C)Oc1ccc(COc2cc3n(c(=O)n2)CC[C@@H](C)N3C)cc1F [E51, (R)-8-((3-fluoro-4-isopropoxybenzyl)oxy)-1,2-dimethyl-3,4-dihydro-1H-pyrimido[1,6-a]pyrimidin-6(2H)-one] |  |  | 50.1 |
| C[C@@H]1CCn2c(cc(OCc3ccc(F)cc3)nc2=O)N1C [E20, (R)-8-((4-fluorobenzyl)oxy)-1,2-dimethyl-3,4-dihydro-1H-pyrimido[1,6-a]pyrimidin-6(2H)-one] | ≤ 100 |  |  |
| CC1CCn2c(cc(OCc3cccc(C#N)c3)nc2=O)N1C (stereo not drawn) [E10, 3-(((1,2-dimethyl-6-oxo-2,3,4,6-tetrahydro-1H-pyrimido[1,6-a]pyrimidin-8-yl)oxy)methyl)benzonitrile] | ≤ 100 |  |  |
